Measurements published in the NIST ThermoML archive (doi:10.1021/acs.jced.9b00306).
Numbers after ± are expanded uncertainties.

Conditions: Liquid, Ebulliometric method (Recirculating still)

COC(=O)CCCCC(=O)OC [dimethyl 1,6-hexanedioate]
vapor or sublimation pressure (424.91 K): 7.79 ± 0.51 kPa
vapor or sublimation pressure (431.2 K): 10 ± 1 kPa
vapor or sublimation pressure (441.21 K): 14.56 ± 0.52 kPa
vapor or sublimation pressure (450.08 K): 20 ± 1 kPa
vapor or sublimation pressure (460.47 K): 28.55 ± 0.59 kPa
vapor or sublimation pressure (474.33 K): 44.63 ± 0.63 kPa
vapor or sublimation pressure (480.72 K): 54.37 ± 0.72 kPa
vapor or sublimation pressure (488.62 K): 68.77 ± 0.79 kPa
vapor or sublimation pressure (496.14 K): 85.45 ± 0.89 kPa
vapor or sublimation pressure (501 K): 99 ± 1 kPa
vapor or sublimation pressure (504.86 K): 108.77 ± 1 kPa
vapor or sublimation pressure (512 K): 131.95 ± 1.2 kPa
vapor or sublimation pressure (518.78 K): 157.68 ± 1.3 kPa
vapor or sublimation pressure (523.92 K): 179.21 ± 1.5 kPa
vapor or sublimation pressure (531.44 K): 216.3 ± 1.6 kPa

OCCCCCCO [1,6-hexanediol]
vapor or sublimation pressure (456.93 K): 10 ± 1 kPa
vapor or sublimation pressure (474.79 K): 20 ± 1 kPa
vapor or sublimation pressure (525.1 K): 99 ± 1 kPa

O [water]
vapor or sublimation pressure (373.15 K): 101.3 ± 1.6 kPa

CO [methanol]
vapor or sublimation pressure (337.69 K): 101.3 ± 1.6 kPa
